Consider 22 molecules from paper PMC6645336 (ACS Omega, 2018).

Where “and” joins values, the source holds several entries; their conditions need not be identical. Identical values can stand only once. Like-named read-outs stand apart in the source and are kept apart here. Where only a bound is given, the exact number is not on record here.

For data set [1] the following is noted: cited from earlier work.
Data set [2] is described as follows: Phase 1: chemical distribution from whole milk into milk fat and skim milk. It counts as physicochemical, cow. The settings on record: for distribution into milk fat, percent of total amount added: mean of all doses; for ratio of concentration in milk fat to initial concentration in whole milk / ratio of concentration in skim milk to initial concentration in whole milk: mean of dose means.

The nature of data set [3]: Phase 2: chemical distribution from skim milk into curd and whey. The settings on record: for concentration ratio of 0% moisture curd to whey: dry matter basis; for Curd Fraction % Dose: phase 2, based on skim milk; for curd/whey concentration ratio: curd as obtained (70% moisture). It counts as physicochemical, cow.
For data set [4] the following is noted: cited from earlier work; for log P / log D (pH 7.4): discussion compounds, Table S4.
The conditions of data set [5]: cited from earlier work. This is another data set of the same source.
Data set [6] can be described thus: Literature reports of residue distribution in milk products. To be noted: 15% of whole milk in their study, 10% in ours; from ref 18 data. Also on record: species or system cow.
The conditions of data set [7]: cited from earlier work. The source holds these as a separate data set.

Turning to `Clc1cc2c(cc1Cl)Oc1cc(Cl)c(Cl)cc1O2` [2,3,7,8-TCDD], the “residues in cream exceeding those in milk, factor” value in data set [1] (lactating dairy cows, medium heavy cream) is “about 10”.
Consider `Clc1ccc(-c2cc(Cl)c(Cl)cc2Cl)cc1Cl` [PCB-118, 2,3′,4,4′,5-pentachlorobiphenyl], for which, in data set [2], the “distribution into milk fat, percent of total amount added” value (from here on “distribution into milk fat, percent”) is reported as over 80%; the “ratio of concentration in milk fat to initial concentration in whole milk” value (from here on “ratio of concentration in milk fat”) is 18–20 and 19.5. Besides, in data set [3] (mean of doses), the “concentration ratio of 0% moisture curd to whey” value is on record as 136 and the “chemical retained in the curd fraction, percent of chemical in skim milk” value was about 80%.
Turning to `Brc1ccc(Oc2cc(Br)c(Br)cc2Br)c(Br)c1` [BDE-99, 2,2′,4,4′,5-pentabromodiphenyl ether], in data set [2], the “distribution into milk fat, percent” value is over 80%. Further, the “ratio of concentration in milk fat” value in data set [2] is given as 18–20. Besides, the “concentration ratio of 0% moisture curd to whey” value in data set [3] (mean of doses) is listed as 327. In data set [3] (mean of doses), the “chemical retained in the curd fraction, percent of chemical in skim milk” value is about 80%. In addition, the “Curd Fraction % Dose” value in data set [3] (nominal 20 nM in whole milk) was 73%; in data set [3] (nominal 200 nM in whole milk) it was 80%; in data set [3] (nominal 2000 nM in whole milk), 92%.
As to `Cl[C@H]1[C@H](Cl)[C@@H](Cl)[C@@H](Cl)[C@H](Cl)[C@H]1Cl` [lindane, 1,2,3,4,5,6-hexachlorcyclohexane], the “log P” value in data set [4] is 3.99. In data set [1], the “concentration in curd relative to whey” value is listed as “approximately 12 times” and the reduction by pasteurization is listed as 65–73%. Moreover, the “losses in Ras cheese” value in data set [1] (during 6 months in storage) was 36.7%. Also, the “losses during refrigeration of yogurt” value in data set [1] (over 3 days) is 1.4–8%.
For `CC(=O)Nc1ccc(O)cc1` [TYL, acetaminophen], in data set [5], the curd/whey concentration ratio is 1.5.
On to `ClC1=C(Cl)C2(Cl)C3C(Cl)C=CC3C1(Cl)C2(Cl)Cl` (stereo not shown) [heptachlor], for which the “log P” value in data set [4] is recorded as 5.46. In data set [1], the curd/whey concentration ratio is 22.
Consider `C[C@]12CC[C@@H]3c4ccc(O)cc4CC[C@H]3[C@@H]1CCC2=O` [E1, estrone], for which, in data set [2], the “distribution into milk fat, percent” value was 74%; the “ratio of concentration in milk fat” value was 15.8 and ~16. Besides, in data set [3] (mean of doses), the curd/whey concentration ratio amounted to 24 and the “concentration ratio of 0% moisture curd to whey” value was 104.
For `CN(C)[C@@H]1C(O)=C(C(N)=O)C(=O)[C@@]2(O)C(O)=C3C(=O)c4c(O)cccc4[C@@](C)(O)[C@H]3[C@H](O)[C@@H]12` [OTET, oxytetracycline], the curd/whey concentration ratio in data set [5] is reported as 1.4.
For `CC[C@H]1OC(=O)[C@H](C)[C@@H](O[C@H]2C[C@@](C)(OC)[C@@H](O)[C@H](C)O2)[C@H](C)[C@@H](O[C@@H]2O[C@H](C)C[C@H](N(C)C)[C@H]2O)[C@](C)(O)C[C@@H](C)C(=O)[C@H](C)[C@@H](O)[C@]1(C)O` [ERY, erythromycin], the curd/whey concentration ratio in data set [5] was 2.4.
Take `O=[N+]([O-])NC1=NCCN1Cc1ccc(Cl)nc1` [IMI, imidacloprid]: in data set [2], the “distribution into milk fat, percent” value was found to be 2.5% and the “ratio of concentration in skim milk to initial concentration in whole milk” value is about 1. Also, in data set [3] (mean of doses), the curd/whey concentration ratio is 2.4; the “concentration ratio of 0% moisture curd to whey” value was found to be 9.2; the “chemical retained in the curd fraction, percent of chemical in skim milk” value came to 23.7%.
For `CC1(C)S[C@@H]2[C@H](NC(=O)Cc3ccccc3)C(=O)N2[C@H]1C(=O)O` [PENG, penicillin G], the curd/whey concentration ratio in data set [5] was 1.2.
Consider `ClC1=C(Cl)C2(Cl)C3C4CC(C5OC45)C3C1(Cl)C2(Cl)Cl` (stereo not shown) [endrin], for which, in data set [4], the “log P” value is 4.9 and the “log D (pH 7.4)” value is recorded as 4.9. Further, the curd/whey concentration ratio in data set [1] is listed as 91.
With `COP(=S)(OC)Oc1ccc(SC)c(C)c1` [fenthion], the log partition coefficient (log P) in data set [4] was 3.21. Besides, in data set [1], the “concentration ratio of fat/whole milk” value is about 5 and the “percent found in the fat fractions” value is given as 80–90%.
On to `CNP(=O)(OC)Oc1ccc(C(C)(C)C)cc1Cl` (stereo not shown) [cruformate], for which, in data set [4], the “log P” value is listed as 3.33. In addition, in data set [1] (fed to cows), the “concentration into cream relative to whole milk” value is reported as “fivefold”. Moreover, the curd/whey concentration ratio in data set [1] (starting milk concentration 0.07 ppm) is recorded as 22; in data set [1] (starting milk concentration 0.16 ppm) it was 31. Further, in data set [6], the “concentration into cream adjusted to reflect lipid mass yield” value is listed as about 7.6 fold.
As to `O=C(Nc1ccc(Cl)cc1)Nc1ccc(Cl)c(Cl)c1` [TCC, triclocarban], in data set [2], the “distribution into milk fat, percent” value was > 80% and 85%; the “ratio of concentration in milk fat” value was 18–20 and 17.6. Moreover, in data set [3] (mean of doses), the “concentration ratio of 0% moisture curd to whey” value is on record as 46; the “chemical distributed into whey, percent of chemical in skim milk” value is 35–60%; the “chemical retained in the curd fraction, percent of chemical in skim milk” value is on record as 40–60%; the “percent of skim milk chemical in 0% moisture curd” value came out at 57%.
Turning to `Clc1cc2c(cc1Cl)Oc1c(ccc(Cl)c1Cl)O2` [1278-TCDD, 1,2,7,8-tetrachlorodibenzo-p-dioxin], in data set [2], the “distribution into milk fat, percent” value is over 80%; the “ratio of concentration in milk fat” value was 18–20 and 18.7. Further, in data set [3] (mean of doses), the “concentration ratio of 0% moisture curd to whey” value is given as 115 and the “chemical retained in the curd fraction, percent of chemical in skim milk” value is about 80%.
Take ivermectin [IVR]: in data set [4] (Table S1, value cited in the earlier paper), the “log P, parenthesis value” was 6.61. Besides, the “milk fat/whole milk concentration ratio” value in data set [7] is 18.4.
On to `CS(=O)(=O)c1ccc([C@@H](O)[C@@H](CO)NC(=O)C(Cl)Cl)cc1` [TAP, thiamphenicol], for which the curd/whey concentration ratio in data set [5] is recorded as 1.3.
In the case of `O=C(O)CNCP(=O)(O)O` [GLY, glyphosate], in data set [2], the “distribution into milk fat, percent” value was 0.95%; the “ratio of concentration in milk fat” value was determined as 0.2; the “ratio of concentration in skim milk to initial concentration in whole milk” value is listed as about 1. In data set [3] (mean of doses), the curd/whey concentration ratio was found to be 1.4; the “concentration ratio of 0% moisture curd to whey” value is reported as 2.5; the “chemical retained in the curd fraction, percent of chemical in skim milk” value was “approximately 16.5%”.
In the case of `CC(C)(c1ccc(O)cc1)c1ccc(O)cc1` [BPA, bisphenol A], the “distribution into milk fat, percent” value in data set [2] was found to be 39%. In data set [3] (mean of doses), the curd/whey concentration ratio was determined as 29 and the “concentration ratio of 0% moisture curd to whey” value stood at 111.
With `Oc1c(Cl)cc2c(c1Cl)Oc1cc(Cl)c(Cl)cc1O2` [2-OH-1378-TCDD, 2-hydroxy-1,3,7,8-tetrachlorodibenzo-p-dioxin], the “reduction in milk fat distribution by hydroxylation” value in data set [2] (2-OH-1378-TCDD compared with 1278-TCDD) is listed as about 30%. Further, in data set [2], the “distribution into milk fat, percent” value came to 54% and the “ratio of concentration in milk fat” value is given as 11.2. Also, the “greater distribution into whey compared to the unsubstituted analogue” value in data set [3] (2-OH-1378-TCDD vs 1278-TCDD, 3′-MeSO2-PCB-101 vs PCB-118) is reported as about 30%. For the same molecule, the “percent of whole milk chemical distributed to whey” value in data set [3] (based on whole milk) is given as “About 25%”. In data set [3] (mean of doses), the “concentration ratio of 0% moisture curd to whey” value is listed as 18; the “chemical distributed into whey, percent of chemical in skim milk” value is recorded as 35–60%; the “chemical retained in the curd fraction, percent of chemical in skim milk” value is given as 40–60%.
As for `Clc1ccc(C(c2ccc(Cl)cc2)C(Cl)(Cl)Cl)cc1` [DDT, dichlorodiphenyltrichloroethane], the “log P” value in data set [4] is on record as 5.92. Besides, the “log D (pH 7.4)” value in data set [4] is 6.22. For the same molecule, the “starting DDT degraded to DDE and DDD” value in data set [1] (during the manufacturing of cheese) was 27–53%. Also, in data set [1] (milk of dairy cows fed DDT), the “concentration in Swiss-type cheese relative to original whole milk” value is given as about 8 times. For the same molecule, the values for the cream/whole milk ratio in data set [1] (pasteurized milk) and in data set [1] (raw milk) were 12 and 9.0, respectively.

As usually defined, the log P is a log measure of how a compound divides between an organic and an aqueous phase.
